Source: patent US6864272B2, “Method and composition for treating cancer using cellular organelle crystallizing agents” (priority 2000, dated 2005)

What was measured:
[1] = tested on: 9 L gliosarcoma; assay: In vivo antitumor activity of tetrazolium salts in polylactic acid polymer, established flank tumor in rats (Example 3); conditions: 2.5 mg/kg in polylactic acid polymer implanted in 14 day established tumor, tumor volume on day 60, n=6
[2] = tested on: SDH; assay: Inhibition of crystal formation on cellular structures by prior incubation with SDH inhibitor; type: cell-based; conditions: prior incubation of cells with the SDH inhibitor, crystals of Examples 4 through 7
Description: The crystallization of organelles, such as centrosome, mitochondrion, or nuclear envelopes (or endoplasmic retulum), effectively stopped cell proliferation and induced cell death as well. This kind of cell death, which is different form either necrosis or appoptosis, is called cellular-organelle-crystallizatin-induced-death, […]. COCID also refers to the cell death, induced by the crystallization of cytoskeletons as well as the crystallization of the sub-units of cellular organelles and cytoskeletons. COCID further refers to the cell death, induced by the crystallization of proteins and small molecules located on cytoskeletons or the sub-units of cellular organelles and ccytoskeletons.
[…]

## c1ccc(-c2nn(-c3ccccc3)[n+](-c3ccccc3)n2)cc1 [TR, 2,3,5-triphenyltetrazolium chloride]
[1]
  Tumor size: 44 ± 5.3 cm^3

## O=C(O)CC[N+](=O)[O-] [nitropropionic acid]
[2]
  inhibition of the crystals on the cellular structures: could be inhibited

## c1ccc(-c2nn(-c3ccccc3)[n+](-c3cccc4ccccc34)n2)cc1 [TV, 2,5-diphenyl-3-[1-naphthyl]-2H-tetrazolium chloride]
[1]
  Tumor size: 21 ± 2.3 cm^3
